# According to patent US12668589B2, “N-formamidopyrazoline derivative as P2X3 receptor antagonist and use thereof” (HANGZHOU WESTAN PHARMACEUTICAL TECHNOLOGY CO., LTD, priority 2020, dated 2026):
# Experiments:
# [1] = molecular target: T1, human PAR-1 (Homo sapiens, UniProt P25116); assay: Inhibitory activity against PAR-1, calcium ion flux fluorescence method (FLIPR); assay type: cell-based; settings: HEK293/Ga15 cells expressing human PAR-1, TFLLR-NH2 10 μM, starting concentration 30 μM
# T1 construct: host or cells: HEK293/Ga15 recombinant cell line
# T1 sequence (P25116 22-425): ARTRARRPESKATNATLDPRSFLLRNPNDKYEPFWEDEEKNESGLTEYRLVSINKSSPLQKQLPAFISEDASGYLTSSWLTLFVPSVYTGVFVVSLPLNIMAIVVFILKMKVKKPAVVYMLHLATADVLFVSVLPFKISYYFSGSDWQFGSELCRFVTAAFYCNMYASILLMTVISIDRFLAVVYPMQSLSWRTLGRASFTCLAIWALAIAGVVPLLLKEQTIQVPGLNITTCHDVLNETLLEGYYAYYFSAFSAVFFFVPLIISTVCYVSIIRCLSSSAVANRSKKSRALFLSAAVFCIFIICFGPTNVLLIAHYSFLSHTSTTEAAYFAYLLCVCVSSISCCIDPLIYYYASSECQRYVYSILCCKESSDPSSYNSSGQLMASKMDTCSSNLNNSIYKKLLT
# Description: The inhibitory activity of the title compounds against human PAR-1 was determined by a calcium ion flux fluorescence method (an FLIPR method). The method thereof was reported in the literature of Zhong et al. [Zhong et al. J Biomol Struct Dyn, 2017, 35(13):2853].
# An HEK293/Ga15 recombinant cell line (HD Biosciences, Shanghai, China) stably expressing human PAR-1 was cultured in a DMEM (Thermo Fisher Scientific, Shanghai) culture solution (containing 10% calf serum, 800 μg/mL G418). Incubator conditions were 37° C. and an air humidity with 5% CO2.
# On the first day, 20 μL per well of PAR-1 cells at a concentration of 4E+5 cells/mL were seeded in a 384-well analysis plate (Corning 3712). […] On the second day, a culture solution in each well was poured off. Then, 20 μL of 1×loading dye (2 μM Fluo-8 AM in 1×HBSS with 20 mM HEPES, 1 mM Probenecid, 0.025% Pluronic F-127 assay buffer) was added in each well. The cell analysis plate was cultured for 1 hour at a room temperature.
# The compounds were dissolved into 100% DMSO to prepare a 10 mM stock solution, which was stored at −20° C. On the day of use, the compound stock solution was thawed at a room temperature. Each compound was subjected to 1:3 serial dilution at 11 concentration points with a DMEM culture solution with a starting concentration of 30 μM. Each compound was subjected to double dilution for testing. A positive control compound was diluted in the same way with SCH79797 with a starting concentration of 30 μM.
# The cell analysis plate was placed in a FLIPR instrument (Molecular Device) and 10 μL of compounds (3× of a final concentration) in a compound plate was added to corresponding wells of the cell analysis plate. After 10 minutes, 10 μL of TFLLR-NH2 (TFA) (a final concentration of 10 μM) was added to each well to stimulate generation of intracellular calcium flux signals. Ca^++-dependent fluorescence signals were continuously monitored at excitation wavelengths of 470/495 nm and emission wavelengths of 515/575 nm to analyze the inhibitory activity of the compounds.
# Data were collected and analyzed by using an FLIPR program. The inhibitory (or agonistic) activity of the compounds at each concentration was assessed by fluorescence peaks. IC50 values of the compounds were calculated by using EXCEL and PRISM programs.
# [2] = molecular target: T2, human P2X4 (Homo sapiens, UniProt Q99571); assay: Inhibitory activity against human P2X4 (electrophysiological method); assay type: cell-based; settings: read-out: hP2X4 (IC50)
# T2 construct: expressed in transfected cells; host or cells: HEK293
# T2 sequence (Q99571 1-388): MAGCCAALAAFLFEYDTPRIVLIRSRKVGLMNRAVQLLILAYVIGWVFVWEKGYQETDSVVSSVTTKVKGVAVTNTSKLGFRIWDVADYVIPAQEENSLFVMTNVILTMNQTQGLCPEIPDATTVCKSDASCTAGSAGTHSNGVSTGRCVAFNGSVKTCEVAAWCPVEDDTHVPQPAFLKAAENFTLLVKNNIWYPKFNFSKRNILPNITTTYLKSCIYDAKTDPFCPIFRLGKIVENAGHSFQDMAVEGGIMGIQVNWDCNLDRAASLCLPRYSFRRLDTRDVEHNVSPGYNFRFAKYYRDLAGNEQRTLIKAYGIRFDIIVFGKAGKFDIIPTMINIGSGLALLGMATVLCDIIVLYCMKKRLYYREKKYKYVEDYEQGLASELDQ
# [3] = molecular target: T3, human P2X2/3 (Homo sapiens, UniProt P56373+Q9UBL9); assay: Inhibitory activity against human P2X2/3 (electrophysiological method); assay type: cell-based; settings: read-out: hP2X2/3 (IC50)
# T3 construct: expressed in transfected cells; host or cells: HEK293
# T3 sequence (P56373 1-397): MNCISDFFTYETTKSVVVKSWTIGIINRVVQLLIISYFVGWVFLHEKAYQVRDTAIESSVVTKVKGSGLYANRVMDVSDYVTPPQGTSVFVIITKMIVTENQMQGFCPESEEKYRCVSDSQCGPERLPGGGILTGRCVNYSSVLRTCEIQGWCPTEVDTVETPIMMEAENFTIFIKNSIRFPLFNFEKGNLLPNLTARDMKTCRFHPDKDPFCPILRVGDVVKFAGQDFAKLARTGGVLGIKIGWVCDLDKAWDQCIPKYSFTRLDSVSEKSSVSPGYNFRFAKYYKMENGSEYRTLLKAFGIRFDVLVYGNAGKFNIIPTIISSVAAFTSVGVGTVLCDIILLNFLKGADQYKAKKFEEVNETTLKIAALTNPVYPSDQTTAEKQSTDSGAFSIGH
# T3 sequence (Q9UBL9 1-471): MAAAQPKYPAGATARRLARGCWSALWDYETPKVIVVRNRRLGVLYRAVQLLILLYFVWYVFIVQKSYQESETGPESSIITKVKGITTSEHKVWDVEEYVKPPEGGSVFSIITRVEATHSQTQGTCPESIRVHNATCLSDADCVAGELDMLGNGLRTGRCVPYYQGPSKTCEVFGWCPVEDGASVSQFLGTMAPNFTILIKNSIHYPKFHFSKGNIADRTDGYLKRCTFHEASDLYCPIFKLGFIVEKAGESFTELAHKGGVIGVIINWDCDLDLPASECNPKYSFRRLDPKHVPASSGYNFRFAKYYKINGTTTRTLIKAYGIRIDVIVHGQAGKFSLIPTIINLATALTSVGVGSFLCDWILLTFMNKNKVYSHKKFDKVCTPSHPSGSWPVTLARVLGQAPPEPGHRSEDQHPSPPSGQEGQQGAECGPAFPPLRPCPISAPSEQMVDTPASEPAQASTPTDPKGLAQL
# [4] = molecular target: T4, human P2X3 (Homo sapiens, UniProt P56373); assay: cell-based
# T4 sequence (P56373 1-397): T3 sequence (P56373 1-397)
# Description: An HEK293 cell line was used as cells. HEK293 cells were placed in a 37° C. incubator with 5% CO2 for culture. Passage was conducted when the cells grew to a density of 80% to 90%. A culture medium in an original 60 mm culture dish was discarded. After the cells were washed 3 times with a sterilized PBS solution, and the solution was blotted up. […] After the trypsin was blotted up, 3 mL of a cell culture medium was added to resuspend the cells. 0.5 mL of a resuspension solution was taken to be added into a new culture dish, and an total culture solution was supplemented to 5 mL. The culture dish was gently shaken to distribute the cells evenly, and then placed in a 37° C. incubator with 5% CO2 for culture.
# First, treated slides were spread in a small 35 mm culture dish. 100 μL of resuspended cells were added, and then a total amount of a culture medium was supplemented to 2 mL. Target genes were transferred into the HEK293 cell line by adopting a calcium transfection method. Small dishes to be transfected were subjected to medium change 1 hour before transfection. 2 mL of a fresh cell culture solution was added. A 1.5 mL EP tube was taken, 200 μL of a 0.25 M CaCl2) solution was added, and 3 μg of plasmids to be transfected were added, and even mixing was conducted to form a DNA-CaCl2 solution. […] A pipette tip was used for mixing while adding. After adding all, gentle blowing and beating were conducted 8 to 10 times. After still standing for 5 minutes, they were added into small dishes. The small dishes were shaken slightly to mix the solution evenly, and the placed in a cell incubator. Culture mediums were replaced after 8 to 10 hours. Electrophysiological experiments were performed 24 to 48 hours after transfection.
# Electrophysiological recording electrodes were obtained by two-step pulling by using an electrode puller (PP-10, Narishige). After an internal solution is injected into the electrodes, a water inlet resistance is 3 to 5 MΩ. During the experiment, a high potassium salt internal solution containing nystatin (K2SO4 of 75 mM, KCl of 120 mM, MgSO4 of 5 mM, HEPES of 10 mM, adjusting pH to 7.2 with Tris-base, and used after filtration) was used as an electrode internal solution. After the cells were sealed by the electrodes, there was no need to further break cell membranes in a sucked manner, but the cell membranes were bored through the perforation of the nystatin to the cell membranes, to form a hole channel. […] A clamping voltage was −60 mV, a sampling frequency was 10 kHz, and filtering was conducted at 2 kHz.
# A working concentration of a P2X3 receptor agonist ATP was 1 μM, and an interval time between two times of ATP administrations was 10 minutes.
IC50 [1] [µM],IC50 [2] [µM],IC50 [3] [µM],IC50 [4] [µM],SMILES
> 30,,,,"CCOC(=O)N(C)[C@H]1CN(C(=O)N[C@H](C)c2cnc(C(F)(F)F)nc2)N=C1c1ccc(C)cc1 [Compound 4, (S)-4-(N-methyl-N-ethoxycarbonylamino)-3-(4-methylphenyl)-N-((R)-1-(2-(trifluoromethyl)pyrimidin-5-yl)ethyl)-4,5-dihydro-1H-pyrazol-1-carboxamide]"
> 30,> 20,2.42,0.056,Cc1ccc(C2=NN(C(=O)N[C@H](C)c3ccc(C(F)(F)F)nc3)C[C@@H]2N2CCOC2=O)cc1 [Compound 22]
